Laboratory results reported in patent US20240027453A1, “METHOD FOR DETECTION AND QUANTITATIVE MONITORING OF INFECTIONS WITH HERPESVIRUSES” (The Trustees of Princeton University, priority 2020, published 2024).
Like-named read-outs stand apart in the source and are kept apart here.

Test system: HCMV
Assay type: cell-based
Conditions: DE
Description: In example herpesvirus PRM assay methods shown herein, cell pellets were lysed in 2% SDS, 100 mM NaCl, 0.5 mM EDTA, 50 mM Tris, pH 8.2, and 50 μg of protein was reduced and alkylated with 25 mM TCEP and 50 mM CAM respectively for 20 min at 70° C. Proteins were then precipitated via methanol chloroform precipitation (Wessel & Flugg, Anal Biochem. 138(1):141-143, 1984), resuspended in 50 mM HEPES, pH 8.2 and digested overnight with trypsin (50:1 protein:enzyme w/w ratio). Digested peptides were desalted by SDB-RPS StageTip as previously described (Lum et al., Cell Syst., 7(6):[…], 2018; Greco et al., Methods Mol Biol 1410:39-63, 2016; Federspiel & Cristea, Methods Mol Biol., 1977:115-143, 2019).
Peptides (1.0 μg on column) were analyzed by LC-MS/MS using a Dionex Ultimate 3000 UHPLC coupled online to an EASYSpray ion source and a Q Exactive HF. Peptides were separated on an EASYSpray C18 column (75 μm×25 cm) heated to 50° C. using a linear gradient of 5% B to 32% B over 60 min at a flow rate of 250 nL/min and were ionized at 1.7 kv. Mobile phase A consisted of 0.1% FA in H2O and mobile phase B consisted of 0.1% FA, 2.9% H2O in ACN.
The PRM method was controlled by a peptide inclusion list with retention time windows of 6 min for selected precursor ions.
The PRM assay was developed and analyzed using the open-source software Skyline (Maclean et al., Bioinformatics 26(7):966-968, 2010). Summed area under the curve of 3-4 transitions per peptide was used for quantitation. Targeted peptides were normalized to host protein loading control peptides. Peptide values for each sample were scaled to the average of each peptide across all runs. The average of multiple peptides was used as the inferred value for the protein measurement when more than one peptide was quantified (Federspiel et al., PLoS Biol. 17(9):e3000437. Doi: 10.1371/journal.pbio.3000437). PRM quantitation data were graphed using the Python Seaborn and Matplotlib libraries.
MRC5 primary human fibroblasts (HFs) (ATCC CCL-171) were used as the model system for HSV-1 and HCMV infections and were cultured in complete growth medium (DMEM supplemented with 10% fetal bovine serum and 1% penicillin-streptomycin antibiotics) at 37° C. and 5% CO2. iSLK.219 cells harboring latent KSHV (a gift from Dr. Britt Glaunsinger, University of California, Berkeley) were grown in complete growth medium supplemented with 500 μg/ml hygromycin (ThermoFisher Scientific, 10687010) at 37° C. and 5% CO2. All cells were used for experiments within a maximum of 10 passages.
Wild type HSV-1 strain 17+ (a gift from Beate Sodeik, Hannover Medical School, Hannover, Germany) was propagated as previously described (Diner et al., 2015). Briefly, PO stocks were generated by electroporating pBAC-HSV-1 into U-2 OS cells. […] In a similar manner, wild type HCMV strain AD169 was produced from BAC electroporation into HFs and working stocks were propagated by infecting HFs at a low level. In both cases, cell-associated virus was released by sonication, combined with supernatant virus, then concentrated by ultracentrifugation (20,000 rpm, 2 hours, 4° C. with SW28 swinging bucket rotor [Beckman Coulter]) over a 10% ficoll (HSV-1) or 20% sorbitol (HCMV) cushion. Virus stock titers were determined by plaque assay for HSV-1 or tissue culture infectious dose (TCID50) for HCMV and infections were performed at a multiplicity of infection (MOI) of 3.
12 hours prior to virus infection or reactivation, cells were treated with either the small molecule drug or DMSO/PBS control at an equivalent volume. […] For infection cycles lasting longer than 24 hours, small molecule drugs were re-added to the cell culture medium every 24 hours. Upon collection, cells were rinsed with PBS, scraped into a microcentrifuge tube, pelleted by centrifugation, and rinsed again with PBS.

Nc1ccn(C[C@@H](CO)OCP(=O)(O)O)c(=O)n1 [CDV, cidofovir]
UL119/UL118 (P16739) protein, numerical value of heatmap FIG. 6C (timepoint 72): 0.9178
UL128 (P16837) protein, numerical value of heatmap FIG. 6C (timepoint 72): 0.3157
US8 (P09730) protein, numerical value of heatmap FIG. 6C (timepoint 72): 1.064
US9 (P09729) protein, numerical value of heatmap FIG. 6C (timepoint 72): 1.073
US12 (P09721) protein, numerical value of heatmap FIG. 6C (timepoint 72): 1.061
US13 (P09720) protein, numerical value of heatmap FIG. 6C (timepoint 72): 1.062
US14 (P09719) protein, numerical value of heatmap FIG. 6C (timepoint 72): 0.8113
US18 (P69334) protein, numerical value of heatmap FIG. 6C (timepoint 72): 1.076
US22 (P09722) protein, numerical value of heatmap FIG. 6C (timepoint 72): 0.7585
US23 (P09701) protein, numerical value of heatmap FIG. 6C (timepoint 72): 0.7114
US24 (P09700) protein, numerical value of heatmap FIG. 6C (timepoint 72): 0.6653
gB (P06473) protein, numerical value of heatmap FIG. 6C (timepoint 72): 0.7243
sp|P09710|IR01_HCMVA (P09710) protein, numerical value of heatmap FIG. 6C (timepoint 72): 0.4528
CVC2 (P16726) protein, numerical value of heatmap FIG. 6C (timepoint 96): 0.8812
DBP (P17147) protein, numerical value of heatmap FIG. 6C (timepoint 96): 1.215
HELI (P16736) protein, numerical value of heatmap FIG. 6C (timepoint 96): 0.6134
NEC1 (P16794) protein, numerical value of heatmap FIG. 6C (timepoint 96): 0.6641
NEC2 (P16791) protein, numerical value of heatmap FIG. 6C (timepoint 96): 0.9731
RIR1 (P16782) protein, numerical value of heatmap FIG. 6C (timepoint 96): 0.8478
TRM1 (P16724) protein, numerical value of heatmap FIG. 6C (timepoint 96): 0.8347
UL4 (P17146) protein, numerical value of heatmap FIG. 6C (timepoint 96): 1.514
UL26 (P16762) protein, numerical value of heatmap FIG. 6C (timepoint 96): 1.007
UL32 (P08318) protein, numerical value of heatmap FIG. 6C (timepoint 96): 0.8551
UL34 (P16812) protein, numerical value of heatmap FIG. 6C (timepoint 96): 0.6849
UL35 (P16766) protein, numerical value of heatmap FIG. 6C (timepoint 96): 0.6647
UL38 (P16779) protein, numerical value of heatmap FIG. 6C (timepoint 96): 0.8749
UL44 (P16790) protein, numerical value of heatmap FIG. 6C (timepoint 96): 0.9654
UL48 (P16785) protein, numerical value of heatmap FIG. 6C (timepoint 96): 0.7541
UL54 (P08546) protein, numerical value of heatmap FIG. 6C (timepoint 96): 1.256
UL71 (P16823) protein, numerical value of heatmap FIG. 6C (timepoint 96): 1.299
UL78 (P16751) protein, numerical value of heatmap FIG. 6C (timepoint 96): 0.7903
UL84 (P16727) protein, numerical value of heatmap FIG. 6C (timepoint 96): 0.7779
UL95 (P16801) protein, numerical value of heatmap FIG. 6C (timepoint 96): 0.5596
UL96 (P16787) protein, numerical value of heatmap FIG. 6C (timepoint 96): 0.7142
UL97 (P16788) protein, numerical value of heatmap FIG. 6C (timepoint 96): 0.8338
UL98 (P16789) protein, numerical value of heatmap FIG. 6C (timepoint 96): 1.012
UL102 (P16827) protein, numerical value of heatmap FIG. 6C (timepoint 96): 0.9332
UL104 (P16735) protein, numerical value of heatmap FIG. 6C (timepoint 96): 0.5729
UL112/UL113 (P17151) protein, numerical value of heatmap FIG. 6C (timepoint 96): 0.7439
UL114 (P16769) protein, numerical value of heatmap FIG. 6C (timepoint 96): 0.9743
UL119/UL118 (P16739) protein, numerical value of heatmap FIG. 6C (timepoint 96): 0.7206
UL128 (P16837) protein, numerical value of heatmap FIG. 6C (timepoint 96): 0.8111
US8 (P09730) protein, numerical value of heatmap FIG. 6C (timepoint 96): 0.7796
US9 (P09729) protein, numerical value of heatmap FIG. 6C (timepoint 96): 0.9079
US12 (P09721) protein, numerical value of heatmap FIG. 6C (timepoint 96): 0.6688
US13 (P09720) protein, numerical value of heatmap FIG. 6C (timepoint 96): 0.8741
US14 (P09719) protein, numerical value of heatmap FIG. 6C (timepoint 96): 0.6845
US18 (P69334) protein, numerical value of heatmap FIG. 6C (timepoint 96): 1.116
US22 (P09722) protein, numerical value of heatmap FIG. 6C (timepoint 96): 1.105
US23 (P09701) protein, numerical value of heatmap FIG. 6C (timepoint 96): 0.7852
US24 (P09700) protein, numerical value of heatmap FIG. 6C (timepoint 96): 0.7832
